# Source: patent US20030125235A1, “Treatment of diseases associated with cytokine production with inhibitors of the tec family of protein tyrosine kinases” (priority 2000, published 2003)
# How the values were obtained:
# [1] = test system: RAW 264.7 murine macrophages; assay: LPS-induced TNF-α production in RAW 264.7 murine macrophages (ELISA); format: cell-based
# Method: The murine macrophage cell line, Raw 264.7 were maintained in DMEM medium supplemented with 100 units/ml penicillin/streptomycin and 5% heat-inactivated fetal calf serum at 37° C. in a humidified atmosphere containing 5% CO2.
# (§1) Supernatants from experiments using either human macrophages, rheumatoid synovial cells or PBMCs were analyzed for TNF-α ot IL-1 by enzyme-linked immunosorbent assay (ELISA). The ELISA for hTNF-α was performed as described by Engelberts et al. (1991) Lymphokine Cytokine Res. 10, 60-76.
# This compound was investigated for its effects on TNF-α production. […] Supernatants were then harvested and assayed for TNF-α by ELISA as described in the Methods section.
# [2] = test system: human monocytes; conditions: Stefanova et al. 1993; cited from earlier work
# [3] = test system: RA synovial membrane cultures; assay: Spontaneous TNF production in rheumatoid arthritis synovial membrane cultures (ELISA); format: cell-based, human; conditions: overnight culture; FIG. 10
# Method: Synovium from rheumatoid patients undergoing joint replacement surgery was dissociated by cutting into small pieces, digested with collagenase and DNase (Buchan et al., 1988). The total cell mixture consisting predominantly of T cells and macrophages were cultured at a density of 1×10^6 cells/ml in RPMI containing 100 units/ml penicillin/streptomycin and 5% heat-inactivated fetal calf serum.
# as §1
# RA synovial cultures were treated with herbimycin at the given concentrations. Following overnight culture the supernatants were harvested and TNF expression measured by ELISA.
# [4] = test system: TNF production; conditions: cited from earlier work; for LPS-induced TNF production: Geng et al. 1993
# [5] = target: Btk (Homo sapiens, UniProt Q06187); conditions: literature (Kawakami et al. 1999; Mahajan et al. 1999); cited from earlier work
# Chain of Btk (Q06187 whole entry, species assumed): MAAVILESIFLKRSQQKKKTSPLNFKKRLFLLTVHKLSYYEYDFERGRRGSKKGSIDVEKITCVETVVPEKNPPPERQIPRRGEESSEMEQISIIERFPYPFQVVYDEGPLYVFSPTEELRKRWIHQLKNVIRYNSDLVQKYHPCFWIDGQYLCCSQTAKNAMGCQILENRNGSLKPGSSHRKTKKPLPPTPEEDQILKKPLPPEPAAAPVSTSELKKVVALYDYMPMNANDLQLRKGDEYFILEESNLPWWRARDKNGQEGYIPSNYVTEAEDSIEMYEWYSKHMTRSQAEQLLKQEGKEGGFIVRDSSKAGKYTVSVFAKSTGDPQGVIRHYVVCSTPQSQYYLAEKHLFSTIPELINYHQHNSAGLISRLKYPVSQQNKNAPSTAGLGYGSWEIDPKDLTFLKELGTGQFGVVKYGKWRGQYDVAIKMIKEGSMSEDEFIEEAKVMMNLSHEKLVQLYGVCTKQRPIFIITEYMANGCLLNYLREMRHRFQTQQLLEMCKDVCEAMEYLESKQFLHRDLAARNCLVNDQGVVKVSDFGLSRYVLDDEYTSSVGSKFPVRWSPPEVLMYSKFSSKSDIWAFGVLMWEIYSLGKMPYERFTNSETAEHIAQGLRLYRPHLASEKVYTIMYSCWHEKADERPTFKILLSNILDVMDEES
# [6] = test system: Lyn, Syk or MAP kinases; conditions: Kawakami et al. 1999; cited from earlier work
smiles,measurement,setting,value
C/C(O)=C(\C#N)C(=O)Nc1cc(Br)ccc1Br [LFM-A13],inhibition of LPS-induced TNF-α expression,"[1]; 200 μM, 1 h pretreatment, LPS 10 ng/ml for 4 h, FIG. 3",44%
same,toxicity limiting the usable concentration,[1]; above 200 μM,toxicity
same,block of LPS-induced TNF-α expression (concentration dependence),"[1]; various concentrations, 1 h pretreatment, LPS 10 ng/ml for 4 h, FIG. 3",dose-dependent manner
CO[C@H]1[C@@H](OC)C[C@H](C)[C@@H](OC)C2=CC(=O)C=C(NC(=O)/C(C)=C/C=C\[C@H](OC)[C@@H](OC(N)=O)/C(C)=C/[C@@H]1C)C2=O [herbimycin],LPS-induced production of TNF-α and IL-1,[2],completely blocks
same,inhibition of spontaneous TNF production,[3],potent inhibitor
same,LPS-induced TNF production,[4],block
CC1=C(O)C(=O)[C@@H]2O[C@@H]2C1=O [Terreic acid],inhibition of Btk,[5],inhibit Btk
same,"effect on activity of Lyn, Syk or MAP kinases",[6],without affecting the activity
N#CC(C#N)=Cc1ccc([N+](=O)[O-])c(O)c1 [tyrophostin AG126],TNF production,[4]; Novogradsky et al. 1994,block
O=c1c(-c2ccc(O)cc2)coc2cc(O)cc(O)c12 [genistein],LPS-induced TNF production,[4],block
